≈ marks a conversion by molar mass, not a printed value.
Key:
L1210 = test: Cytotoxicity against mouse L1210 cells; type: functional, cell-based
KB = test: Cytotoxicity against human KB cells; type: functional, cell-based

SMILES | IC50 (L1210) [µg/mL] | IC50 (KB) [µg/mL]
C=C1[C@@H](O)C[C@H]2C(C)(C)[C@@H](O)CC[C@]2(C)[C@H]1C/C=C1\CCOC1=O [PACOVATININ B] | > 10 | > 10
C=C1[C@@H](O)C[C@H]2C(C)(C)C(=O)CC[C@]2(C)[C@H]1C/C=C1/CCOC1=O [PACOVATININ C] | 4.7 (≈ 14.1 µM) | 7.3 (≈ 22 µM)

Source: ChEMBL document CHEMBL1155756, “Pacovatinins A-C, new labdane diterpenoids from the seeds of Renealmia exaltata” (J Nat Prod, 2001)
